# Patent publication US20240100049A1, “REACTIVATION OF EMBRYONIC AND FETAL HEMOGLOBIN” (The Henry M. Jackson Foundation for the Advancement of …, priority 2021, published 2024)
# Key:
# MEL cells = assay: Inhibitor treatment of MEL cells, real-time RT-PCR of globin mRNA; format: cell-based, Mouse; conditions: for effect on expression levels of Hbb-b1/2 (adult globin): 48 hours treatment
# Description: For studies testing inhibitors on MEL cells, the cells were treated with selected inhibitors or vehicle in culture medium (RPMI 1640 medium with 10% fetal bovine serum) for 48 hours and were subsequently harvested and analyzed for relative mRNA levels of Hbb-bh1 and Hbb-y using real-time RT-PCR.
# Primers as used in the Examples as described herein are summarized below.
# human CD34+ HSPCs [1] = assay: Cytospin analysis of erythroid differentiation of human CD34+ HSPCs; format: cell-based; conditions: after 14 days of differentiation
# Description: FIG. 7 is a cytospin analysis showing erythroblasts and reticulocytes in cultures of human CD34^+ HSPCs treated with PTC596 and MI-3454 and induced to undergo erythroid differentiation for 14 days. Cells were stained using Hema 3 staining system (Fisher Scientific). Scale bar, […].
# (§1) Primary human mobilized CD34^+ HSPCs (StemCell Technologies Inc.) were initially cultured in expansion medium containing StemSpan-XF Medium (StemCell Technologies Inc.) with 1× CC 100 cytokine mix (StemCell Technologies Inc.). Cells were maintained in this expansion medium at a density of 0.1-1×10^6 cells/ml for a total of 4 days with media changes every two days. On day 4, cells were induced to undergo erythroid differentiation in three phases as known in the art. Briefly, base medium for differentiation contains Iscove's Modified Dulbecco's Medium plus 2% human peripheral blood plasma (Innovative Research), 3% human AB serum (Sigma), […] human holo-transferrin (Sigma), 3 IU/mL heparin (Sigma), […] human insulin (Sigma), and 1% Penicillin-Streptomycin (Life Technologies Inc.). In the first phase (day 0 to day 6), cells were cultured at a concentration of 10^5 cells/ml in the presence of 10 ng/mL human stem cell factor (Biolegend), 1 ng/mL human IL-3 (Biolegend), and 3 IU/mL human erythropoietin (Janssen). […]
# human CD34+ HSPCs [2] = assay: Flow cytometry of F-cells (anti-HbF) in cultures of human CD34+ HSPCs; format: cell-based; conditions: erythroid differentiation 14 days
# From the text: Cells were fixed with glutaraldehyde, permeabilized, and stained with a PE-conjugated anti-HbF antibody. The percentages of F-cells are indicated.
# as §1, with “(Janssen). In the second phase (day 7 to day 11), IL-3 was omitted from the first phase culture medium.” for “(Janssen).”
# MEN1 = biological target: T1, MEN1 (Homo sapiens, UniProt O00255); assay: Western blotting of MEN1 (MENIN) in erythroid-differentiated human CD34+ HSPCs; format: cell-based; conditions: erythroid differentiation 14 days
# T1 construct: Western blotting analysis of protein levels of […], BMI1, MEN1, and control ACTIN in CD34^+ HSPCs; host or cells: primary human mobilized CD34+ HSPCs, erythroid differentiation for 14 days
# T1 sequence (O00255 1-610): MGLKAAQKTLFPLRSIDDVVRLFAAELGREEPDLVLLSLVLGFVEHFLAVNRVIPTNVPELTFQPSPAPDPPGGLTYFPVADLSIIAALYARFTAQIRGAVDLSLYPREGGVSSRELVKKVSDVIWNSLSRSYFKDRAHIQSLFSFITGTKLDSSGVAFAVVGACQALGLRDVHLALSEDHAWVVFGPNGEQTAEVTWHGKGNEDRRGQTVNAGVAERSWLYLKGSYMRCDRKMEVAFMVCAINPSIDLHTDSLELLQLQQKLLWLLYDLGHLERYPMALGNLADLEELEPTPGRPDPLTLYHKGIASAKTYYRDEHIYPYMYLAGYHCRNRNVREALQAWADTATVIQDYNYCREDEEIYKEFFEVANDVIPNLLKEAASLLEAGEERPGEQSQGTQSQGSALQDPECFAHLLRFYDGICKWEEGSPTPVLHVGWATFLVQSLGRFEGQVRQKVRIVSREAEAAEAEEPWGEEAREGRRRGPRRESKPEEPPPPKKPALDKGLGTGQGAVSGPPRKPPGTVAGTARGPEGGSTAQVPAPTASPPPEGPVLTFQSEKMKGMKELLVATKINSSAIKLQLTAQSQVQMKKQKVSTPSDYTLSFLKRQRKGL
# Description: (§2) Western blotting analysis of protein levels of […], BMI1, MEN1, and control ACTIN in CD34^+ HSPCs were treated with PTC596 (PTC) at indicated concentrations (FIG. 9A), MI-3454 (MI) at indicated concentrations (FIG. 9B), or DMSO and induced to undergo erythroid differentiation for 14 days.
# as §1
# γ-Globin = assay: Western blotting of γ-Globin in erythroid-differentiated human CD34+ HSPCs; format: cell-based; conditions: erythroid differentiation 14 days
# Description: as §2, §1
# human CD34+ HSPCs [3] = assay: Real-time RT-PCR of globin mRNA in erythroid cells differentiated from human CD34+ HSPCs; format: cell-based; conditions: 14 days of differentiation; for α-globin mRNA levels: vs DMSO (FIG. 8B)
# Description: Human CD34^+ HSPCs treated with PTC596 (PTC) or MI-3454 (MI) at indicated concentrations or vehicle (DMSO) were induced to undergo erythroid differentiation. Cells were harvested after 14 days of differentiation for real-time RT-PCR analysis of human fetal γ (FIG. 8A), embryonic […] (FIG. 8B), and adult β (FIG. 8C) globin mRNA levels. Relative expression levels were calculated by normalizing to GAPDH mRNA levels in the same sample and also to cells treated with DMSO.
# Primary human mobilized CD34^+ HSPCs (StemCell Technologies Inc.) were initially cultured in expansion medium containing StemSpan-XF Medium (StemCell Technologies Inc.) with 1× CC 100 cytokine mix (StemCell Technologies Inc.). Cells were maintained in this expansion medium at a density of 0.1-1×10^6 cells/ml for a total of 4 days with media changes every two days. On day 4, cells were induced to undergo erythroid differentiation in three phases as known in the art. Briefly, base medium for differentiation contains Iscove's Modified Dulbecco's Medium plus 2% human peripheral blood plasma (Innovative Research), 3% human AB serum (Sigma), […] human holo-transferrin (Sigma), 3 IU/mL heparin (Sigma), […] human insulin (Sigma), and 1% Penicillin-Streptomycin (Life Technologies Inc.). In the first phase (day 0 to day 6), cells were cultured at a concentration of 10^5 cells/ml in the presence of 10 ng/mL human stem cell factor (Biolegend), 1 ng/mL human IL-3 (Biolegend), and 3 IU/mL human erythropoietin (Janssen). In the second phase (day 7 to day 11), IL-3 was omitted from the first phase culture medium. In the third phase (day 12 to day 16), both stem cell factor and IL-3 were omitted and the concentration of transferrin was adjusted to 1 mg/ml. Cell density also was adjusted to 10^6 cells/ml in the beginning of this phase. Drug treatments were started at day 2 of expansion condition and maintained thereafter. New drugs were added every 1-2 days with medium change.
# The effects of PTC596 and MI-3454 on human fetal (γ) and embryonic (ε) globin expression in erythroid cells produced in culture from primary human CD34^+ hematopoietic stem and progenitor cells (HSPCs) were further tested. […] PTC596, MI-3454, or control DMSO were added to the culture from day 2 of the expansion phase and were replenished upon media change every two days.
# BMI1 = biological target: T2, BMI1 (Homo sapiens, UniProt P35226); assay: Western blotting of BMI1 in erythroid-differentiated human CD34+ HSPCs; format: cell-based; conditions: erythroid differentiation 14 days
# T2 construct: Western blotting analysis of protein levels of […], BMI1, MEN1, and control ACTIN in CD34^+ HSPCs; host or cells: primary human mobilized CD34+ HSPCs, erythroid differentiation for 14 days
# T2 sequence (P35226 1-326): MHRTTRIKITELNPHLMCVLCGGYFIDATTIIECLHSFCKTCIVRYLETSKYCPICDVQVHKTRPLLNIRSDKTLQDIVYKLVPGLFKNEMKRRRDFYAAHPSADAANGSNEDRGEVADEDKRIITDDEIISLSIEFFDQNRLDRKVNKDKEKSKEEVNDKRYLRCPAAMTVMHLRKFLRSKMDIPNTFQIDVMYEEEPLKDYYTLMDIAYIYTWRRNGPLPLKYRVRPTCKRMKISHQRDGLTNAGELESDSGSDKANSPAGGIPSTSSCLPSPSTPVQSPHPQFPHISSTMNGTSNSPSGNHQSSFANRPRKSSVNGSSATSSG
# Description: as §2, §1
# [4] = tested concentrations, 48 hours
# [5] = 50 nM, 48 hours, relative to DMSO, normalized to Rpl4
erythroid differentiation (erythroblasts and reticulocytes observed) (human CD34+ HSPCs [1]),MENIN protein levels (MEN1),BMI1 protein levels (BMI1),SMILES,effect on expression levels of Hbb-b1/2 (adult globin) (MEL cells),Hbb-bh1 mRNA levels (MEL cells; [4]),Hbb-y mRNA levels (MEL cells; [4]),percentage of F-cells (human CD34+ HSPCs [2]),γ-Globin protein levels (γ-Globin),percentage of γ-globin expression levels in total β-like globin (β+γ+ε) expression levels (human CD34+ HSPCs [3]; vs DMSO),β-globin mRNA levels (human CD34+ HSPCs [3]; vs DMSO),γ-globin mRNA levels (human CD34+ HSPCs [3]; vs DMSO),α-globin mRNA levels (human CD34+ HSPCs [3]),increase of Hbb-bh1 mRNA levels (MEL cells; [5]),increase of Hbb-y mRNA levels (MEL cells; [5])
not blocked,reduced,,CNc1nc(NC2CCN(Cc3ccc4c(cc(C#N)n4CC45CC(NC=O)(C4)C5)c3C)CC2)c2cc(CC(F)(F)F)sc2n1 [MI-3454],minor changes,significant increases,significant increases,higher percentage,increased,significant increase,increase,significantly increased,significantly increased,,
not blocked,,reduced,Cc1nc2ccc(F)cc2n1-c1nc(N)c(F)c(Nc2ccc(C(F)(F)F)cc2)n1 [PTC596],minimal effects,,,higher percentage,increased,significant increase,,significantly increased,significantly increased,~20 fold,~15 fold
,,,CCN(C(=O)c1cc(F)ccc1Oc1cncnc1N1CC2(CCN(C[C@H]3CC[C@H](NS(=O)(=O)CC)CC3)CC2)C1)C(C)C [SNDX-5613],,significantly increased,,,,,,,,,
